In PubChem BioAssay AID1611 (NINDS Approved Drug Screening Program, 2009):
pEC50: −log10 of the molar value.

Test system: human cells, HSE-luciferase heat shock reporter
Assay: HSE-luciferase reporter activators – cell-based (AID 1611)
Conditions: measured here: HSE reporter induction potency

Compound | pEC50
C[C@H]1O[C@@H](O[C@H]2[C@@H](O)C[C@H](O[C@H]3[C@@H](O)C[C@H](O[C@H]4CC[C@]5(C)C6CC[C@]7(C)[C@@H](C8=CC(=O)OC8)CC[C@]7(O)C6CC[C@@H]5C4)O[C@@H]3C)O[C@@H]2C)C[C@H](O)[C@@H]1O (stereo partly specified) | 5.40
Cc1ccc(C(=O)c2ccc(CC(=O)O)n2C)cc1 | 5.30

Continued by rising pEC50, values first:

pEC50 | Compound
5.33 | CC(=O)O[C@]1(C(C)=O)CCC2C3C=C(Cl)C4=CC(=O)[C@@H]5C[C@@H]5[C@]4(C)C3CC[C@@]21C (stereo partly specified)
5.34 | O=C1c2ccccc2C(=O)C1c1ccccc1
5.34 | CC[C@H]1OC(=O)[C@H](C)[C@@H](O[C@H]2C[C@@](C)(OC)[C@@H](O)[C@H](C)O2)[C@H](C)[C@@H](O[C@@H]2O[C@H](C)C[C@H](N(C)C)[C@H]2O)[C@](C)(O)C[C@@H](C)CN(C)[C@H](C)[C@@H](O)[C@]1(C)O
5.37 | CC(COc1ccccc1)NC(C)[C@H](O)c1ccc(O)cc1 (stereo partly specified)
